Laboratory results from the supplement of paper PMC10307832.

What was measured:
Test in all cases: relative viability (nuclei count vs DMSO), 5 days (fraction); higher = more cells survive
[1] = compound: C#Cc1cccc(Nc2ncnc3cc(OC)c(OCCCCCCC(=O)NO)cc23)c1 [CUDC-101] + CS(=O)(=O)N1CCN(Cc2cc3nc(-c4cccc5[nH]ncc45)nc(N4CCOCC4)c3s2)CC1 [Pictilisib] (partner 1 µM)
Procedure, shortened: (§1)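 After 5 days of treatment, lung cancer cells in 1536-well plates were fixed and stained in a single step (final 0.05% Triton X-100, 1% formaldehyde, 1 ug/ml Hoechst) and their nuclei counted on 4× images. Treatment had been applied by pin tool the day after seeding as one drug alone or as a fixed anchor-drug dose with five library-drug doses (not always all listed) in √10 steps. Relative viability is the nuclei count of treated wells divided by that of vehicle wells, and values are medians of duplicate plates.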

[2] = compound: C1=CC=C2C(=C1)N=C(S2)C(C#N)C3=NC(=NC=C3)NCCC4=CN=CC=C4 + C[C@@H](Oc1cc(-c2cnn(C3CCNCC3)c2)cnc1N)c1c(Cl)ccc(F)c1Cl [Crizotinib] (partner 1 µM)
Procedure, shortened: as §1

[3] = compound: COc1cc(N2CCC(N3CCN(C)CC3)CC2)ccc1Nc1ncc(Cl)c(Nc2ccccc2S(=O)(=O)C(C)C)n1 [NVP-TAE684] + O=C(c1cc(Cc2n[nH]c(=O)c3ccccc23)ccc1F)N1CCN(C(=O)C2CC2)CC1 [Olaparib] (partner 8 µM)
Procedure, shortened: as §1

[4] = compound: C#Cc1cccc(Nc2ncnc3cc(OC)c(OCCCCCCC(=O)NO)cc23)c1 [CUDC-101] + Cc1nc(NC(=O)N2CCC[C@H]2C(N)=O)sc1-c1ccnc(C(C)(C)C(F)(F)F)c1 [Alpelisib] (partner 2 µM)
Procedure, shortened: as §1

Cell Line	relative viability ([1]; first compound 0.01 µM)	relative viability ([1]; first compound 0.03162 µM)	relative viability ([1]; first compound 0.1 µM)	relative viability ([1]; first compound 0.3162 µM)	relative viability ([1]; first compound 1 µM)	relative viability ([2]; first compound 0.005 µM)	relative viability ([2]; first compound 0.01581 µM)	relative viability ([2]; first compound 0.05 µM)	relative viability ([2]; first compound 0.1581 µM)	relative viability ([2]; first compound 0.5 µM)	relative viability ([3]; first compound 0.2 µM)	relative viability ([3]; first compound 0.6325 µM)	relative viability ([3]; first compound 2 µM)	relative viability ([4]; first compound 0.01 µM)	relative viability ([4]; first compound 0.03162 µM)	relative viability ([4]; first compound 0.1 µM)	relative viability ([4]; first compound 0.3162 µM)	relative viability ([4]; first compound 1 µM)
201T	0.702	0.653	0.636	0.626	0.59	0.978	1.03	1.02	1.07	0.995	0.886	0.823	0.815	0.932	0.937	0.926	1.05	0.88
A549	0.578	0.489	0.5	0.453	0.288	0.539	0.795	0.837	0.705	0.554	0.308	0.387	0.3	0.773	0.757	0.605	0.948	0.618
A-427	0.804	0.656	0.655	0.698	0.614	0.69	0.979	0.984	0.951	0.899	0.814	0.674	0.631	1.15	1.1	1.11	1.02	0.887
ABC-1	0.688	0.788	0.547	0.533	0.212	1.05	1.1	0.941	1.21	0.925	0.636	0.692	0.37	1.15	1.07	0.819	0.609	0.572
BEN	0.569	0.499	0.601	0.454	0.304	0.668	0.924	0.82	0.785	0.806	1.04	0.971	0.894	1.21	0.887	1.17	0.848	0.737
CAL-12T	0.686	0.64	0.396	0.449	0.396	0.48	0.561	0.743	0.766	0.37	0.664	0.781	0.267	1.38	0.984	1.42	1.11	1.21
COR-L23	0.846	0.861	0.751	0.68	0.23	0.6	0.596	0.728	0.653	0.568	0.273	0.282	0.281	0.968	0.753	0.661	0.617	0.349
COR-L 105	0.466	0.376	0.352	0.313	0.189	0.679	0.815	0.699	0.628	0.728	0.695	0.595	–	1.17	0.848	0.88	0.829	0.52
Calu-6	0.944	0.869	0.929	0.764	0.522	0.479	0.771	0.831	0.907	0.638	0.657	0.519	0.357	1.02	0.939	0.986	1	0.763
ChaGo-K-1	1.03	1.04	0.784	0.746	0.568	0.761	–	1.2	1.29	1.02	0.422	0.418	0.345	–	–	–	–	–
EBC-1	0.43	0.325	0.328	0.159	0.0697	0.236	0.172	0.189	0.224	0.22	0.713	0.661	0.55	0.796	0.709	0.696	0.721	0.319
EKVX	0.452	0.403	0.412	0.355	0.215	0.775	1.03	0.986	0.895	0.573	0.868	0.678	0.464	0.833	0.817	0.849	1.03	0.682
EMC-BAC-2	0.531	0.61	0.606	0.557	0.351	0.645	0.769	0.704	0.766	0.581	0.506	0.447	0.35	0.759	0.737	0.757	0.741	0.499
EPLC-272H	0.449	0.434	0.275	0.244	0.18	0.852	0.97	0.868	0.94	0.795	0.321	0.577	0.162	0.985	0.887	0.92	0.926	0.845
H3255	0.618	0.382	0.143	0.181	0.0818	0.722	0.811	0.911	0.937	0.824	0.539	0.532	0.407	0.71	0.552	0.177	0.375	0.136
HARA	0.684	0.475	0.293	0.215	0.157	0.928	1.11	0.957	1.22	0.978	0.76	0.891	0.299	0.752	0.661	0.583	0.54	0.225
HCC-15	0.683	0.774	0.713	0.79	0.569	0.734	0.851	0.833	1.02	0.776	0.745	0.748	0.577	0.875	0.888	0.909	0.909	0.763

Cell Line	relative viability ([1]; first compound 0.01 µM)	relative viability ([1]; first compound 0.03162 µM)	relative viability ([1]; first compound 0.1 µM)	relative viability ([1]; first compound 0.3162 µM)	relative viability ([1]; first compound 1 µM)	relative viability ([2]; first compound 0.005 µM)	relative viability ([2]; first compound 0.01581 µM)	relative viability ([2]; first compound 0.05 µM)	relative viability ([2]; first compound 0.1581 µM)	relative viability ([2]; first compound 0.5 µM)	relative viability ([3]; first compound 0.2 µM)	relative viability ([3]; first compound 0.6325 µM)	relative viability ([3]; first compound 2 µM)	relative viability ([4]; first compound 0.01 µM)	relative viability ([4]; first compound 0.03162 µM)	relative viability ([4]; first compound 0.1 µM)	relative viability ([4]; first compound 0.3162 µM)	relative viability ([4]; first compound 1 µM)
HCC-44	0.593	0.63	0.531	0.69	0.366	0.753	0.837	0.826	0.875	0.69	0.997	1.07	0.905	0.641	0.664	0.771	0.781	0.685
HCC-78	0.246	0.205	0.209	0.153	0.145	0.325	0.36	0.325	0.491	0.317	0.727	0.859	0.406	0.288	0.282	0.452	0.256	0.146
HCC-366	0.136	0.121	0.142	0.13	0.119	0.24	0.458	0.564	0.844	0.378	0.352	0.326	0.288	0.555	0.197	0.437	0.547	0.337
HCC-827	1.07	0.53	0.368	0.287	0.262	0.874	0.945	0.907	0.958	0.905	0.697	0.585	0.668	0.958	0.27	0.224	0.187	0.179
HOP-62	0.758	0.696	0.753	0.582	0.4	0.779	0.815	0.675	1.01	0.725	0.291	0.33	0.811	0.777	0.792	1.11	1.05	0.741
IA-LM	0.311	0.293	0.322	0.233	0.106	–	0.985	0.922	0.808	0.808	0.745	0.799	0.638	0.676	0.769	0.678	0.745	0.388
LC-2-ad	0.421	0.601	0.549	0.301	0.104	0.413	–	0.425	0.502	0.414	0.75	0.675	0.464	0.896	0.908	0.844	0.73	0.433
LCLC-97TM1	0.276	0.283	0.192	0.226	0.144	0.28	0.394	0.368	0.326	0.256	0.443	0.326	0.154	0.261	0.266	0.235	0.233	0.15
LCLC-103H	0.586	0.574	0.614	0.501	0.492	1.12	1.03	1	1.13	0.964	0.794	0.783	0.726	0.93	0.95	1.01	1.02	0.953
NCI-H522	–	–	–	–	–	–	–	–	–	–	0.642	0.664	0.662	–	–	–	–	–
NCI-H1395	0.59	0.682	0.564	0.652	0.581	–	–	–	–	–	0.463	0.422	0.384	0.993	0.998	1.1	1.18	0.823
NCI-H1563	0.652	0.607	0.709	0.667	0.509	0.86	0.843	0.838	0.814	0.815	–	–	–	0.919	0.815	0.925	0.942	0.882
NCI-H1648	–	–	–	–	–	–	–	–	–	–	0.45	0.863	0.287	–	–	–	–	–
NCI-H1650	0.57	0.552	0.559	0.446	0.293	0.609	0.852	0.865	1.01	0.57	0.757	0.758	0.825	–	–	–	–	–
NCI-H1793	0.302	0.43	0.248	0.375	0.273	–	–	–	–	–	1.01	0.841	0.508	0.796	0.41	0.658	0.627	0.546
NCI-H2342	–	–	–	–	–	–	–	–	–	–	0.419	0.427	0.3	–	–	–	–	–
SW 900	–	–	–	–	–	–	–	–	–	–	0.885	0.953	0.68	–	–	–	–	–
